According to patent publication US20100152434A1, “Protein Kinase-binding Nucleosides and Associated Methods” (priority 2007, published 2010):
Like-named read-outs stand apart in the source and are kept apart here.

Columns and labels:
NCI/ADR-RES = conditions: NCI/ADR-RES
HOP-92 [1] = system: HOP-92
788-0 = conditions: 788-0
NCI-H322M = conditions: NCI-H322M
OVCAR-5 [2] = experiment: cells; conditions: Homo sapiens, OVCAR-5, 48 h
SF-268 = experiment: cells; conditions: Homo sapiens, SF-268, 48 h
COLO 205 = experiment: cells; conditions: Homo sapiens, COLO 205, 48 h
NCI-H460 [3] = experiment: cells; conditions: Homo sapiens, NCI-H460, 48 h
CAKI-1 = experiment: cells; conditions: Homo sapiens, CAKI-1, 48 h
SK-OV-3 = experiment: cells; conditions: Homo sapiens, SK-OV-3, 48 h
OVCAR-5 [4] = system: OVCAR-5
UACC-257 [5] = system: UACC-257
DU-145 = experiment: cells; conditions: Homo sapiens, DU-145, 48 h
LOX IMVI = experiment: cells; conditions: Homo sapiens, 48 h
UACC-257 [6] = experiment: cells; conditions: Homo sapiens, UACC-257, 48 h
HOP-92 [7] = experiment: cells; conditions: Homo sapiens, HOP-92, 48 h
NCI-H460 [8] = system: NCI-H460
MDA-MB-435 = conditions: MDA-MB-435
M14 = experiment: cells; conditions: Homo sapiens, M14, 48 h
A549/ATCC = experiment: cells; conditions: Homo sapiens, A549, 48 h
[9] = Log10 Concentration −4.0, Molar
[10] = Log10 Concentration −5.0, Molar
[11] = Log10 Concentration −6.0, Molar
[12] = Log10 Concentration −7.0, Molar
[13] = Log10 Concentration −8.0, Molar

CCOC(=O)C[C@@H]1C(O[Si](C)(C)C(C)(C)C)[C@H](n2cnc3c(NC(=O)Nc4ccccc4)ncnc32)O[C@@H]1CNC(=O)NC (some centres unmarked) [Compound 10]
TGI (NCI/ADR-RES; 48 h): >1.00E−4 Molar
Percent Growth (NCI/ADR-RES; [9]): 59%
Percent Growth (NCI/ADR-RES; [10]): 80%
Percent Growth (NCI/ADR-RES; [11]): 104%
Percent Growth (NCI/ADR-RES; [12]): 107%
Percent Growth (NCI/ADR-RES; [13]): 105%
Percent Growth (HOP-92 [1]; [9]): −61%
Percent Growth (HOP-92 [1]; [10]): −32%
Percent Growth (HOP-92 [1]; [11]): 12%
Percent Growth (HOP-92 [1]; [12]): −1%
Percent Growth (HOP-92 [1]; [13]): 4%
TGI (BT-549; 48 h): >1.00E−4 Molar
Percent Growth (BT-549; [9]): 51%
Percent Growth (BT-549; [10]): 67%
Percent Growth (BT-549; [11]): 110%
Percent Growth (BT-549; [12]): 109%
Percent Growth (BT-549; [13]): 104%
TGI (788-0; 48 h): 5.21E−8 Molar
Percent Growth (788-0; [9]): −97%
Percent Growth (788-0; [10]): −34%
Percent Growth (788-0; [11]): 86%
Percent Growth (788-0; [12]): 83%
Percent Growth (788-0; [13]): 92%
TGI (IGROV1; 48 h): 1.80E−5 Molar
Percent Growth (IGROV1; [9]): −58%
Percent Growth (IGROV1; [10]): 20%
Percent Growth (IGROV1; [11]): 93%
Percent Growth (IGROV1; [12]): 94%
Percent Growth (IGROV1; [13]): 94%
TGI (NCI-H322M; 48 h): >1.00E−4 Molar
Percent Growth (NCI-H322M; [9]): 72%
Percent Growth (NCI-H322M; [10]): 89%
Percent Growth (NCI-H322M; [11]): 95%
Percent Growth (NCI-H322M; [12]): 90%
Percent Growth (NCI-H322M; [13]): 105%
GI50 (OVCAR-5 [2]): 31.1 µM
CC50 (OVCAR-5 [2]; read-out: LC50): > 100 µM
GI50 (SF-268): 6.53 µM
CC50 (SF-268; read-out: LC50): 92.5 µM
GI50 (COLO 205): 3.84 µM
CC50 (COLO 205; read-out: LC50): > 100 µM
GI50 (NCI-H460 [3]): 5.54 µM
CC50 (NCI-H460 [3]; read-out: LC50): > 100 µM
GI50 (CAKI-1): 29.7 µM
CC50 (CAKI-1; read-out: LC50): > 100 µM
GI50 (SK-OV-3): 21 µM
CC50 (SK-OV-3; read-out: LC50): > 100 µM
TGI (OVCAR-5 [4]; 48 h): >1.00E−4 Molar
Percent Growth (OVCAR-5 [4]; [9]): 27%
Percent Growth (OVCAR-5 [4]; [10]): 72%
Percent Growth (OVCAR-5 [4]; [11]): 95%
Percent Growth (OVCAR-5 [4]; [12]): 103%
Percent Growth (OVCAR-5 [4]; [13]): 104%
TGI (KM12; 48 h): 2.09E−5 Molar
Percent Growth (KM12; [9]): −28%
Percent Growth (KM12; [10]): 13%
Percent Growth (KM12; [11]): 105%
Percent Growth (KM12; [12]): 112%
Percent Growth (KM12; [13]): 107%
TGI (UACC-257 [5]; 48 h): >1.00E−4 Molar
Percent Growth (UACC-257 [5]; [9]): 9%
Percent Growth (UACC-257 [5]; [10]): 34%
Percent Growth (UACC-257 [5]; [11]): 99%
Percent Growth (UACC-257 [5]; [12]): 102%
Percent Growth (UACC-257 [5]; [13]): 102%
TGI (RPMI-8226; 48 h): 4.57E−6 Molar
Percent Growth (RPMI-8226; [9]): −57%
Percent Growth (RPMI-8226; [10]): −27%
Percent Growth (RPMI-8226; [11]): 53%
Percent Growth (RPMI-8226; [12]): 75%
Percent Growth (RPMI-8226; [13]): 77%
GI50 (DU-145): 4.97 µM
CC50 (DU-145; read-out: LC50): 78.4 µM
TGI (SN12C; 48 h): >1.00E−4 Molar
Percent Growth (SN12C; [9]): 11%
Percent Growth (SN12C; [10]): 48%
Percent Growth (SN12C; [11]): 103%
Percent Growth (SN12C; [12]): 101%
Percent Growth (SN12C; [13]): 101%
GI50 (LOX IMVI): 5.46 µM
CC50 (LOX IMVI; read-out: LC50): > 100 µM
GI50 (UACC-257 [6]): 5.68 µM
CC50 (UACC-257 [6]; read-out: LC50): > 100 µM
GI50 (HOP-92 [7]): < 0.01 µM
CC50 (HOP-92 [7]; read-out: LC50): 41.2 µM
TGI (NCI-H460 [8]; 48 h): 2.50E−5 Molar
Percent Growth (NCI-H460 [8]; [9]): −49%
Percent Growth (NCI-H460 [8]; [10]): 32%
Percent Growth (NCI-H460 [8]; [11]): 101%
Percent Growth (NCI-H460 [8]; [12]): 102%
Percent Growth (NCI-H460 [8]; [13]): 102%
TGI (MDA-MB-435; 48 h): >1.00E−4 Molar
Percent Growth (MDA-MB-435; [9]): 8%
Percent Growth (MDA-MB-435; [10]): 40%
Percent Growth (MDA-MB-435; [11]): 89%
Percent Growth (MDA-MB-435; [12]): 92%
Percent Growth (MDA-MB-435; [13]): 95%
GI50 (M14): 2.51 µM
CC50 (M14; read-out: LC50): 78.6 µM
GI50 (A549/ATCC): 4.18 µM
CC50 (A549/ATCC; read-out: LC50): 79.1 µM
